Consider eight compounds from patent US20170260185A1 (priority 2014, published 2017).

The structures appear in SMILES notation. Counter-ions that a name gives are not always drawn. Like-named read-outs stand apart in the source and are kept apart here.

The target of experiment [1] is T1, human norepinephrine transporter (NET) (Homo sapiens, UniProt P23975).
T1 construct: expressed in transfected cells; host or cells: CHO (hNET-CHO), membrane preparation
Nature of the experiment: Scintillation Proximity Assay (SPA) competition binding, [3H]nisoxetine, hNET-CHO membranes. On the technique in general: Scintillation proximity formats need no separation of bound from free tracer.

In experiment [2] the target is T2, human dopamine transporter (DAT) (Homo sapiens, UniProt Q01959).
T2 construct: expressed in transfected cells; host or cells: CHO (hDAT-CHO), membrane preparation
Nature of the experiment: Scintillation Proximity Assay (SPA) competition binding, [3H]WIN-35,428, hDAT-CHO membranes.

The target of experiment [3] is human ERG potassium channel (hERG) (Homo sapiens, UniProt Q12809). Kind of experiment: cell-based. The method, then:
Measure of the Effect on hERG Channel by Tail Current Recording Using In Vitro Rapid ICE™
The potency of the compounds of the invention in inhibiting human ERG potassium channel (hERG) tail current is assessed in a recombinant HEK293 cell line stably transfected with hERG cDNA using Rapid ICE™ (Rapid Ion Channel Electrophysiology) assay. Rapid ICE™ is an automated patch-clamp assay utilizing the PatchXpress 7000A system (Molecular Devices Corporation) or the QPatch HTX system (Sophion Bioscience A/S).
Briefly cells are cultivated for 24 to 72 hours before recordings in minimum essential medium supplemented with 10% FBS, 1% non-essential amino acids, 1% sodium pyruvate, 2 mM L-glutamine. The day of the experiment cells are detached with TrypLE and prepared to be loaded on the instrument. For PatchXpress cells are finally resuspended in 150 μl of Extracellular Buffer whereas for QPatch cells are resuspended in 7 ml Serum-Free Media containing 25 mM Hepes and Soybean trypsin inhibitor and immediately placed in the cell storage tank of the machine. The composition of the Extracellular Buffer is (mM): NaCl 137; KCl 4; CaCl2 1.8; MgCl2 1.0; D-glucose 10; N 2 hydroxyethylpiperazine-N′-2-ethanesulfonic acid (HEPES) 10; pH 7.4 with 1 M NaOH. The composition of the pipette solution is (mM): KCl 130; MgCl2 1.0; Ethylene glycol-bis(R-aminoethyl ether)-N,N,N′,N′-tetraacetic acid (EGTA) 5; MgATP 5; HEPES 10; pH 7.2 with 1 M KOH. The voltage protocol includes the following steps: step from −80 mV to −50 mV for 200 ms, +20 mV for 4.8 s, step to −50 mV for 5 s then step to the holding potential of −80 mV. Compounds of the invention are dissolved in DMSO and diluted in Extracellular Buffer to achieve final test concentrations (0.1, 1 and 10 μM) in 0.1% DMSO. The voltage protocol is run and recorded continuously during the experiment. The vehicle, corresponding to 0.1% DMSO in Extracellular Buffer, is then applied for 3 min followed by the test substance in triplicate. The standard combined exposure time is 5 min. The average of tail current amplitude values recorded from 4 sequential voltage pulses is used to calculate for each cell the effect of the test substance by calculating the residual current (% control) compared with vehicle pre-treatment. Data are reported as % inhibition for each concentration tested and IC50 values are estimated using DataXpress or QPatch software. At least two cells are tested, more if results diverge.

The target in experiment [4] is T3, human serotonin transporter (SERT) (Homo sapiens, UniProt P31645).
T3 construct: expressed in transfected cells; host or cells: CHO (hSERT-CHO), membrane preparation
Kind of experiment: Scintillation Proximity Assay (SPA) competition binding, [3H]citalopram, hSERT-CHO membranes.

Where [5] appears, read: read-out: pIC50 DAT (converted).

Chain of human ERG potassium channel (hERG) (Q12809 whole entry): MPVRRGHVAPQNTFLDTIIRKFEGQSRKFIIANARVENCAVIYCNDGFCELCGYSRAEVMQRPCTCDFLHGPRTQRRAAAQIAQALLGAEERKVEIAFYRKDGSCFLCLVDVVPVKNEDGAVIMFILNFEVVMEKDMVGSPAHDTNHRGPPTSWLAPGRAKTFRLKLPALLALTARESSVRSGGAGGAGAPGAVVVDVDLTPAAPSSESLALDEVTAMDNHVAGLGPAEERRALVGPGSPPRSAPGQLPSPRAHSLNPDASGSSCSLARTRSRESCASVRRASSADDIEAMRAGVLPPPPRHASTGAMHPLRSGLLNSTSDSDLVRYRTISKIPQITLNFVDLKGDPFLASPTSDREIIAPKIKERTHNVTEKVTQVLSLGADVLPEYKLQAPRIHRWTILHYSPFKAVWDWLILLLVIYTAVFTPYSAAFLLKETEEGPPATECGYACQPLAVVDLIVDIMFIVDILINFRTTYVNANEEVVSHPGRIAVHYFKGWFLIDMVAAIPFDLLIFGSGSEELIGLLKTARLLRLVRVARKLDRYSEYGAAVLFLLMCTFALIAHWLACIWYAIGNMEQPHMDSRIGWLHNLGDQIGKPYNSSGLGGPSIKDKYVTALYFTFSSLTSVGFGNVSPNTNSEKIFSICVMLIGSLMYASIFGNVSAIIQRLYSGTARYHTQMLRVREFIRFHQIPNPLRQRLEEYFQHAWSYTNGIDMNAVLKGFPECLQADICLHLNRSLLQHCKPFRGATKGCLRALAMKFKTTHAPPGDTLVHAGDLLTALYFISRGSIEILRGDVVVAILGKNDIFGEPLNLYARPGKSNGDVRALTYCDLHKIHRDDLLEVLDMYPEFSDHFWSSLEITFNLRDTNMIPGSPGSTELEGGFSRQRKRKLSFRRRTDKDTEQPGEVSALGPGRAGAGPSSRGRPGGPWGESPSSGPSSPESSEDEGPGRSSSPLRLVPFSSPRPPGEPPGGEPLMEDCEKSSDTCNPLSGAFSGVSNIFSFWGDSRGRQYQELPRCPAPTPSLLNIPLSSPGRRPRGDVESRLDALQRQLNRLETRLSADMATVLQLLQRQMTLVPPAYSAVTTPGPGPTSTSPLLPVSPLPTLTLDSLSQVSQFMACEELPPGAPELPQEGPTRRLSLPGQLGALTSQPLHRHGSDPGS
T2 sequence (Q01959 whole entry): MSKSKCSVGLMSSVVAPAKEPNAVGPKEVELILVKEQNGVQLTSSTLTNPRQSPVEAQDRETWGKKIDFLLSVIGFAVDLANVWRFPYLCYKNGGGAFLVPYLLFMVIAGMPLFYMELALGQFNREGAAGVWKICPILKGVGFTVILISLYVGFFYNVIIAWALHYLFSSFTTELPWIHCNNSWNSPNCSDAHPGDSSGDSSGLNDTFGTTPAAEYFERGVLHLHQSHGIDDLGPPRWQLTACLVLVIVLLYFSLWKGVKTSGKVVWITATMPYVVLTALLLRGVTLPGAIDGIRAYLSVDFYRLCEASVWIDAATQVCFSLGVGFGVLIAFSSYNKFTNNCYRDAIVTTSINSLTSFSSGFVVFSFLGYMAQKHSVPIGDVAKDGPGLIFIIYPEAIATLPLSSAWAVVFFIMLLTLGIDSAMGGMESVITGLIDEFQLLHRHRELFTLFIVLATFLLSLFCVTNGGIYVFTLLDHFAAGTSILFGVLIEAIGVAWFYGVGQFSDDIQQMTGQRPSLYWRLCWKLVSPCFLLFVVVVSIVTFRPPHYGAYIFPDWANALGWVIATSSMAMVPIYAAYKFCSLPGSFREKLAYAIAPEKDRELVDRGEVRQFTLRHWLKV
T3 sequence (P31645 whole entry): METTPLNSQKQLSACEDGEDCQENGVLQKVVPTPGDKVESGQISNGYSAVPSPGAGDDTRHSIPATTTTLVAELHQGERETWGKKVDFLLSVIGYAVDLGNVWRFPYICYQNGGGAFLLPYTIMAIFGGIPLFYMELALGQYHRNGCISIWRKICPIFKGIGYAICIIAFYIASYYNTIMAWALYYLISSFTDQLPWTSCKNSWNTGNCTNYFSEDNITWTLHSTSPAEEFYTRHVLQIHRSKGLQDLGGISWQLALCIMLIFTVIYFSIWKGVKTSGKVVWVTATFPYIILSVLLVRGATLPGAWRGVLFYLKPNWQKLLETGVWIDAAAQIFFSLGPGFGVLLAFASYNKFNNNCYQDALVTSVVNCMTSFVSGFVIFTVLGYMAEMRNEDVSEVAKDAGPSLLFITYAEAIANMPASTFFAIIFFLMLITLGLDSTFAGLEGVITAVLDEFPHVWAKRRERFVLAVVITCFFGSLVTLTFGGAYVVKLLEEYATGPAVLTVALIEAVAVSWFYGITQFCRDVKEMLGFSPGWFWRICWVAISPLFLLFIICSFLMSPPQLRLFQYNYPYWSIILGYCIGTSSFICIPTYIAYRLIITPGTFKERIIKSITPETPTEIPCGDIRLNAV
T1 sequence (P23975 whole entry): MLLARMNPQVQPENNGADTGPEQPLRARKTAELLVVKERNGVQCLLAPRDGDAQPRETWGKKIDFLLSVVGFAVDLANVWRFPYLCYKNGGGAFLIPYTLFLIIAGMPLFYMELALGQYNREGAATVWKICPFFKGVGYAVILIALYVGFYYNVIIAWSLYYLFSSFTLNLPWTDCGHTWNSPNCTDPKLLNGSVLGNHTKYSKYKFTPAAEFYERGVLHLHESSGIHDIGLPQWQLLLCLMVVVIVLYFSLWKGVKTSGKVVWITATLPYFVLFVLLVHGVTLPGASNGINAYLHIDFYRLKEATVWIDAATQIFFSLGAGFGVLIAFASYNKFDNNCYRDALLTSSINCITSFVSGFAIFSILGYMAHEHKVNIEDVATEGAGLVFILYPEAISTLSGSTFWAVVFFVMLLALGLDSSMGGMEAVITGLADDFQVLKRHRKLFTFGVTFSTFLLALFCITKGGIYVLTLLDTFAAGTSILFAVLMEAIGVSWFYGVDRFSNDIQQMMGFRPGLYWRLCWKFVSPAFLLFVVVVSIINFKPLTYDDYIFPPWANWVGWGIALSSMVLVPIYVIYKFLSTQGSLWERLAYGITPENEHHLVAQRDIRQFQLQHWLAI

For `O=C1CCNC[C@@]12CCN(C(c1ccc(F)cc1)c1ccc(F)cc1)C2` (single isomer, unassigned) [Example 9, (5R or 5S)-2-[bis(4-fluorophenyl)methyl]-2,7-diazaspiro[4.5]decan-10-one dihydrochloride salt], the IC50 in experiment [1] is 2400 nM; in experiment [2] (setting [5]), 263 nM; in experiment [3] (hERG tail current, HEK293 cells, read-out: pIC50 hERG (converted)), 5010 nM; in experiment [4], 10700 nM.

Regarding `CN1CCC(=O)C2(CCN(C(c3ccc(F)cc3)c3ccc(F)cc3)C2)C1` (centres unmarked) [Example 2, 2-[bis(4-fluorophenyl)methyl]-7-methyl-2,7-diazaspiro[4.5]decan-10-one], the IC50 in experiment [1] is 22400 nM; in experiment [2] (setting [5]) it was 372 nM; in experiment [3], 7940 nM; in experiment [4] it was 21900 nM.

In the case of `CN1CCC(O)C2(CCN(C(c3ccc(F)cc3)c3ccc(F)cc3)C2)C1` (centres unmarked) [Example 4, 2-[bis(4-fluorophenyl)methyl]-7-methyl-2,7-diazaspiro[4.5]decan-10-ol], the IC50 in experiment [1] is 18200 nM; in experiment [2] (setting [5]), 195 nM; in experiment [3], 1580 nM; in experiment [4] it was 18600 nM.

For the compound `Fc1ccc(C(c2ccc(F)cc2)N2CCC3(CNCCO3)C2)cc1` (centres unmarked) [Example 29, 2-[bis(4-fluorophenyl)methyl]-6-oxa-2,9-diazaspiro[4.5]decane], the IC50 in experiment [1] is 1380 nM; in experiment [2] (setting [5]) it was 107 nM; in experiment [3], 6310 nM; in experiment [4], 6920 nM.

Take `Fc1ccc(C(c2ccc(F)cc2)N2CC[C@]3(CNCCC3(F)F)C2)cc1` (single isomer, unassigned) [Example 17, (5S or 5R)-2-[bis(4-fluorophenyl)methyl]-10,10-difluoro-2,7-diazaspiro[4.5]decane]: the IC50 is 1070 nM in experiment [1], 22.9 nM in experiment [2] (pIC50 DAT), 3160 nM in experiment [3] and 13200 nM in experiment [4].

As for `O=C1CCNCC12CCN(C(c1ccc(F)cc1)c1ccc(F)cc1)C2` (centres unmarked) [Example 1, 2-[bis(4-fluorophenyl)methyl]-2,7-diazaspiro[4.5]decan-10-one], the IC50 in experiment [1] was 3800 nM; in experiment [2] (setting [5]), 129 nM; in experiment [3], 2000 nM; in experiment [4] it was 22400 nM.

With `ON=C1CCNCC12CCN(C(c1ccc(F)cc1)c1ccc(F)cc1)C2` (single isomer, unassigned) [Example 16, N-[(5S or 5R,10E)-2-[bis(4-fluorophenyl)methyl]-2,7-diazaspiro[4.5]decan-10-ylidene]hydroxylamine], the IC50 in experiment [1] is 6310 nM; in experiment [2] (pIC50 DAT), 49 nM; in experiment [3] it was 2510 nM; in experiment [4] it was 6610 nM.

With `Fc1ccc(C(c2ccc(F)cc2)N2CCC3(CCNCC3)C2)cc1` [Example 27, 2-[bis(4-fluorophenyl)methyl]-2,8-diazaspiro[4.5]decane], the IC50 in experiment [1] was 1700 nM; in experiment [2] (setting [5]) it was 148 nM; in experiment [3], 2510 nM; in experiment [4] it was 3470 nM.
